Measured values published in ChEMBL document CHEMBL3045302, “Structure-activity Relationship for the Insect Antifeedant Activity of Benzofuran Derivatives” (Biosci Biotechnol Biochem, 1999).

How the values were obtained:
[1] = Lipophilicity of the compound assessed as retardation factor using hexane-ethyl acetate solvent system (5:2) on silica gel TLC plate system; assay type: physicochemical; conditions: hexane-ethyl acetate (5:2)
Spodoptera litura = test: Antifeedant activity against Spodoptera litura third-instar larvae fed on compound treated fresh sweet potato leaves by dual choice leaf disk assay; assay type: functional
Daphnia magna = test: Toxicity against Daphnia magna after 12 hr post compound treatment; assay type: organism-based; conditions: in vivo

Rf [1]	SMILES	ED50 (Spodoptera litura)	pED50 (Spodoptera litura)	LD50 (Daphnia magna) [ppm]
0.52	C=C(C)C1Cc2c(cc(OC)c(C(C)=O)c2OC)O1 (centres undefined)	2.8 ×10⁻⁸ mol/cm2	7.55	
0.52	C=C(C)C1Cc2c(OC)c(OC)c(OC)c(C(C)=O)c2O1 (centres undefined)	1.6 ×10⁻⁸ mol/cm2	7.8	
0.58	COc1cc2c(c(OC)c1C(C)=O)CC(C(C)C)O2 (centres undefined)	7.6 ×10⁻⁸ mol/cm2	7.12	
0.83	C=C(C)C1Cc2c(cc(OC)c(C(C)O)c2OC)O1 (centres undefined)	1.1 ×10⁻⁷ mol/cm2	6.96	
0.82	C=C(C)C1Cc2c(OC)cc(OC)cc2O1 (centres undefined)	5.3 ×10⁻⁸ mol/cm2	7.28	
0.68	C=C(C)C1Cc2c(cc(OC)c(OC)c2OC)O1 (centres undefined)	5.6 ×10⁻⁸ mol/cm2	7.25	
0.51	C=C(C)C1Cc2c(cc(OC)c(C(C)=O)c2O)O1 (racemic)	7.1 ×10⁻⁸ mol/cm2	7.15	
0.51	C=C(C)[C@@H]1Cc2c(cc(OC)c(C(C)=O)c2O)O1 [REMIROL]	1.3 ×10⁻⁷ mol/cm2	6.89	

The remaining lines, values behind:

SMILES	Rf [1]	ED50 (Spodoptera litura)	pED50 (Spodoptera litura)	LD50 (Daphnia magna) [ppm]
C=C(C)C1Cc2c(OC)cc(OC)c(C(C)=O)c2O1 (centres undefined)	0.24	5.4 ×10⁻⁹ mol/cm2	8.27	9.1
C=C(C)C1Cc2cc(C(C)=O)c(OC)cc2O1 (centres undefined)	0.62	4.2 ×10⁻⁸ mol/cm2	7.38	
C=C(C)C1Cc2ccccc2O1 (centres undefined)	0.92	1.1 umol/cm2	5.96	
C=C(C)C1Cc2ccc(OC)cc2O1 (centres undefined)	0.86	6.3 ×10⁻⁷ mol/cm2	6.2	
C=C(C)C1Cc2cc(OC)ccc2O1 (centres undefined)	0.84	1.3 ×10⁻⁷ mol/cm2	6.89	
C=C(C)C1Cc2cc(C(C)=O)ccc2O1 (racemic)	0.61	7.4 ×10⁻⁸ mol/cm2	7.13	
C=C(C)c1cc2cc(C(C)=O)c(O)cc2o1 [EUPARIN]	0.76	1.2 ×10⁻⁹ mol/cm2	5.92	
C=C(C)c1cc2cc(C(C)=O)c(OC)cc2o1 [MethylEuparin]	0.66	6.1 ×10⁻⁸ mol/cm2	7.21	
